SMILES strings stand for the structures.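 A five-concentration, 48-hour dose response in 96-well plates underlies each endpoint, interpolated linearly between surrounding concentrations. Abbreviation: GI50, concentration required for 50% inhibition of growth. TGI is the concentration that stops growth completely.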 Where only a bound is given, the exact number is not on record here.

Common to all, as to experiment: DTP human tumour cell line panel, 48 h
Assay [1] has as its system HOP-62 NSCLC.
The test system of assay [2] is NCI-H460 lung.
Assay [3] relates to SR leukemia.
For assay [4], the system named is SK-MEL-2 melanoma.
Assay [5] has as its system MDA-MB-435.
For assay [6], the system named is RXF 393 renal.
Assay [7] has as its system CAKI-1 renal.
Assay [8] relates to BT-549 breast.
Assay [9] has as its system IGROV1 ovarian.
In assay [10] the test system is RPMI-8226 leukemia.
For assay [11], the system named is DU-145 prostate.
Assay [12] deals with EKVX NSCLC.

On to `C[C@H]1[C@H](C)CC[C@]2(C)CC[C@]3(C)C(=C[C@@H](O)[C@@H]4[C@@]5(C)[C@H](O)[C@@H](O)[C@H](O)C(C)(C)[C@@H]5CC[C@]43C)[C@H]12`, for which the total growth inhibition concentration (TGI) in assay [1], in assay [2], in assay [3], in assay [4], in [5] and in assay [6] was more than 100 µM throughout. In addition, the concentration for total growth inhibition (TGI) in assay [7], in assay [8], in assay [9], in [10], in assay [11] and in [12] was more than 100 µM each time. The GI50 in assay [6] is 0.361 µM; in [12], 0.0221 µM.

Take `CCN(CC)c1ccc2cc(-c3nnc(-c4ccccc4)o3)c(=O)oc2c1`: the TGI in assay [1] is more than 74.1 µM; in [2] it was more than 51.3 µM; in [3] it was more than 100 µM; in assay [4] it was more than 87.2 µM; in assay [5], more than 100 µM; in assay [6], more than 52.5 µM. Further, the TGI in assay [7] was more than 100 µM; in assay [8], more than 100 µM; in assay [9], more than 80.8 µM; in [10], more than 100 µM; in assay [11], more than 100 µM; in assay [12] it was more than 100 µM.

As to `C#CCn1ncc2c(SCc3ccccc3)ncnc21`, the TGI in assay [1], in assay [2], in assay [3], in assay [4], in [5] and in [6] was more than 100 µM in each case. For the same compound, the concentration for total growth inhibition (TGI) in [7], in assay [8], in assay [9], in [10], in assay [11] and in [12] was more than 100 µM throughout.

Usually TGI stands for the concentration giving total growth inhibition. Read a low TGI as greater sensitivity of the cells. By GI50 is commonly meant the concentration giving 50% growth inhibition.

These data come from PubChem BioAssay (NCI).
